Experimental findings from patent US5349127A, “Expression of herbicide metabolizing cytochromes P450” (priority 1992, dated 1994) are described below.

Data set [1] deals with S. lividans pCAO200. Description: Sulfonylurea metabolism by washed cell suspension (Examples 6-9). As to conditions: substrate 10006. Type of data set: in vitro ADME, Streptomyces lividans. The procedure: (§1) Herbicides and their metabolites are measured by HPLC as described by Romesser et al., BBRC 140: 650-659 (1986), herein incorporated by reference, except that 0.1% H3 PO4 is used in both solvents. Chromatographic identity and quantitation of the herbicides and their resulting metabolites is determined by comparing them chromatographically with authentic standard compounds. Identity of the resulting metabolites is also confirmed by UV spectroscopy. […]
(§2) S. lividans transformed respectively with pCAO200SU1-FeS-B#9, pCAO200SU#112and pCAO200 were cultured for 36 hours in 400 ml of YEME broth at 30° C. S. griseolus ATCC 11796 was similarly cultured in 400 ml of sporulation broth. Six hours before harvesting the cells, 150 ml of fresh YEME broth was added to the S. lividans cells, and the S. griseolus cells were split into two 200 ml cultures with 100 ml of fresh sporulation broth added to each. 10001 (36 mg) was added to one of the two S. griseolus cultures to induce cytochrome P450SU1. The cells were prepared as described above in Example 5 and the concentrations of the sulfonylurea compound 10006 and its metabolites 10007, 10008 or 10009 were determined.

Data set [2] relates to S. lividans pCAO200SU1#12. Described as above. Type of data set: in vitro ADME, Streptomyces lividans. Here is the method: as §1, §2
In data set [3] the test system is S. lividans pCAO200SU1-FeS-B#9. Described as above. The class given is in vitro ADME, Streptomyces lividans. The procedure:
Herbicides and their metabolites are measured by HPLC as described by Romesser et al., BBRC 140: 650-659 (1986), herein incorporated by reference, except that 0.1% H3 PO4 is used in both solvents. Chromatographic identity and quantitation of the herbicides and their resulting metabolites is determined by comparing them chromatographically with authentic standard compounds. Identity of the resulting metabolites is also confirmed by UV spectroscopy.
A 100 ml culture of S. griseolus ATCC 11796 in sporulation broth and a 50 ml culture of S. lividans transformed with pCAO400 in YEME broth were prepared and incubated for 24 hours as described. At that time, the S. griseolus culture was split into two 50 ml aliquots into two separate flasks and 25 ml of fresh sporulation broth was added to each and 9 mg of […] was added to one of these cultures to induce cytochrome P450SU1 expression. Fresh YEME broth (25 ml) was added to the S. lividans culture. After an additional 6 hours growth at 30° C., the cells in each culture were harvested as described above, washed twice with MOPS (50 mM, pH 7.2) and recentrifuged. The cell pellets were resuspended in four cell volumes of MOPS (50 mM, pH 7.2) containing 0.2% glucose and about 100 μg/ml of 10004. These cell suspensions were incubated at 30° C. with shaking and aliqouts were taken at 2 and 5.5 hours. The supernatant of each aliquot was analyzed by HPLC and the concentrations of the sulfonylurea compound 10004 and its metabolite 10005 were determined.
S. lividans transformed respectively with pCAO200SU1-FeS-B#9, pCAO200SU#112and pCAO200 were cultured for 36 hours in 400 ml of YEME broth at 30° C. S. griseolus ATCC 11796 was similarly cultured in 400 ml of sporulation broth. Six hours before harvesting the cells, 150 ml of fresh YEME broth was added to the S. lividans cells, and the S. griseolus cells were split into two 200 ml cultures with 100 ml of fresh sporulation broth added to each. 10001 (36 mg) was added to one of the two S. griseolus cultures to induce cytochrome P450SU1. […]

The test system of data set [4] is S. lividans pCAO200SU2-FeS-A#11. Kind of data set: Sulfonylurea metabolism by washed cell suspension (Examples 11-12). The class given is in vitro ADME, Streptomyces lividans. To be noted: substrate 10010.
Data set [5] deals with S. lividans pCAO200. Kind of data set: Sulfonylurea metabolism by washed cell suspension (Examples 6-9). The class given is in vitro ADME, Streptomyces lividans. As to conditions: substrate 10010.
In data set [6] the test system is S. lividans pCAO200SU1-FeS-B#9. Description: Percent conversion of herbicides by cultures (Example 16). The class given is in vitro ADME, Streptomyces lividans. To be noted: 3.0 mg herbicide in 25 ml broth; 24 hours. The procedure: (§3) Separate cultures (50 ml) inoculated with S. lividans C37, S. lividans transformed with pCAO200SU1-FeS-B#9, S. griseolus ATCC11796, S. griseolus PH2003 transformed with pIJ425, or S. ariseolus PH2003 transformed with pCS325 were cultured in sporulation broth for 18 hours at 30° C. with shaking. Each culture was then resuspended in 25 ml fresh sporulation broth and 3.0 mg herbicide added. In the case of cultures of S. griseolus ATCC11796, a second culture containing herbicide and 3.0 mg 10001 was also prepared. Each culture was reincubated for 24 hours, then an aliquot of the medium was withdrawn and analyzed by HPLC. The percent conversion of herbicide was determined.

In data set [7] the test system is S. griseolus PH2003 pCS325. Described as above. Type of data set: in vitro ADME, Streptomyces griseolus. To be noted: for Percent Conversion: 3.0 mg herbicide in 25 ml broth, 24 hours; for metabolism by bacteria containing constitutively expressed P450SU2: summary of Table 13. The procedure: as §3
The subject of data set [8] is S. griseolus PH2003 pIJ425. Described as above. To be noted: 3.0 mg herbicide in 25 ml broth; 24 hours. The class given is in vitro ADME, Streptomyces griseolus. The procedure:
as §3

Data set [9] deals with S. griseolus ATCC11796. Description: Metabolism of 10015 analogs to 10014 (Example 17). The class given is in vitro ADME, Streptomyces griseolus. The procedure:
Cultures of S. griseolus ATCC11796 were cultivated in sporulation-broth (50ml) at 30° C. with shaking for 17 hours. Each culture was then resuspended in 25 ml fresh sporulation broth, 3.0 mg sulfonylurea was added, and the culture reincubated for 4 days. Aliquots of the medium were then analyzed by HPLC. Formation of 10014 was measured based on similarity of retention time and UV spectrum of the test metabolite to that formed by metabolism of 10015.

In data set [10] the test system is S. lividans pCAO200SU1-FeS-B#9. Kind of data set: Percent conversion of non-sulfonylurea herbicides (Example 29). The class given is in vitro ADME, Streptomyces lividans. To be noted: for Percent Conversion: 3.0 mg herbicide in 25 ml broth, 18 hours; for metabolism by bacteria containing constitutively expressed P450SU1: summary of Table 29. The procedure: This experiment was performed as in Example 17 with the following changes. Separate cultures (50 ml) inoculated with S. lividans C37, S. lividans transformed with pCAO200SU1-FeS-B#9, or S. griseolus ATCC11796 were cultured in sporulation broth for 18 hours at 30° C. with shaking. Each culture was then resuspended in 25 ml fresh sporulation broth and 3.0 mg herbicide added. Each culture was reincubated for 18 hours, then an aliquot of the medium was withdrawn and analyzed by HPLC. The percent conversion of herbicide was determined.

SMILES strings stand for the structures.

For the compound `COC(=O)c1ccccc1S(=O)(=O)NC(=O)Nc1nc(C)nc(O)n1` [compound 10007, N-[(4-hydroxy-6-methyl-1,3,5-triazinyl)aminocarbonyl]-2-methoxycarbonylbenzenesulfonamide], the concentration in supernatant in [1] (2 h) worked out at 4 µM; in data set [1] (4 h), 1 µM; in [1] (6 h), 1 µM; in data set [2] (substrate 10006, 2 h), 2 µM; in [2] (substrate 10006, 4 h) it was 2 µM; in data set [2] (substrate 10006, 6 h) it was 2 µM. The concentration in supernatant in [3] (substrate 10006, 2 h) is 12 µM; in data set [3] (substrate 10006, 4 h) it was 21 µM; in data set [3] (substrate 10006, 6 h) it was 30 µM.

`COc1nc(C)nc(=NC(=O)NS(=O)(=O)c2ccccc2C(=O)O)[nH]1` [compound 10008, N-[(4-methoxy-6-methyl-1,3,5-triazinyl)aminocarbonyl]-2-carboxybenzenesulfonamide]: the concentration in supernatant came out at 0 µM in data set [1] (2 h); 0 µM in data set [1] (4 h); 0 µM in [1] (6 h); 1 µM in data set [2] (substrate 10006, 2 h); 1 µM in data set [2] (substrate 10006, 4 h); 1 µM in data set [2] (substrate 10006, 6 h). In addition, the concentration in supernatant came to 18 µM in data set [3] (substrate 10006, 2 h); 38 µM in data set [3] (substrate 10006, 4 h); 55 µM in [3] (substrate 10006, 6 h).

Consider `COC(=O)c1ccccc1S(=O)(=O)NC(=O)Nc1nc(CO)nc(OC)n1` [compound 10009, N-[(4-methoxy-6-hydroxymethyl-1,3,5-triazin-yl)aminocarbony1]-2-methoxycarbonylbenzenesulfonamide], for which the concentration in supernatant came to 0 µM in data set [1] (2 h); 0 µM in data set [1] (4 h); 0 µM in [1] (6 h); 0 µM in [2] (substrate 10006, 2 h); 1 µM in data set [2] (substrate 10006, 4 h); 1 µM in [2] (substrate 10006, 6 h). The concentration in supernatant turned out to be 15 µM in [3] (substrate 10006, 2 h); 33 µM in data set [3] (substrate 10006, 4 h); 49 µM in [3] (substrate 10006, 6 h).

Take `COC(=O)c1ccccc1S(=O)(=O)NC(=O)Nc1nc(C)cc(CO)n1` [compound 10011, N-[(4-hydroxymethyl-6-methyl-pyrimidin-2-yl)aminocarbonyl]-2-methoxycarbonylbenzenesulfonamide]: the concentration in supernatant in [4] (2 h) turned out to be 1 µM; in data set [4] (4 h), 5 µM; in data set [4] (6 h) it was 14 µM; in [2] (substrate 10010, 2 h), 4 µM; in [2] (substrate 10010, 4 h), 7 µM; in data set [2] (substrate 10010, 6 h), 11 µM. Besides, the concentration in supernatant stood at 34 µM in data set [3] (substrate 10010, 2 h); 37 µM in [3] (substrate 10010, 4 h); 27 µM in data set [3] (substrate 10010, 6 h); 1 µM in [5] (2 h); 2 µM in data set [5] (4 h); 3 µM in data set [5] (6 h).

For `COC(=O)C1Cc2c(c(Cl)cc(F)c2N2C(=O)C3=C(CCCC3)C2=O)O1` (stereo not shown) [compound 10020, 7-chloro-5-fluoro-4-(2,3,4,5,6,7-hexahydro-1,3-dioxo-1H-isoindol-2-yl)-2,3-dihydro-2-benzofurancarboxylic acid, methyl ester], the “Percent Conversion” value was 19% in data set [6], 89% in data set [7] and 7% in data set [8]. For the same compound, the “metabolism by bacteria containing constitutively expressed P450SU2” value in data set [7] is recorded as “metabolized”.

Consider `C[n+]1cccnc1[O-]` [compound 10022, 1-methyl-2(1H)-pyrimidinone], for which the figures for the “Percent Conversion” value in data set [6], in data set [7] and in data set [8] were 42%, 96% and 0%, respectively. In addition, in [7], the “metabolism by bacteria containing constitutively expressed P450SU2” value is reported as “metabolized”.

For `CCN1Cc2cccc(S(=O)(=O)NC(=O)Nc3nc(OC)cc(OC)n3)c2S1(=O)=O` [compound 10024, N-[(4,6-dimethoxypyrimidin-2-yl)aminocarbonyl]-2-ethyl-2,3-dihydro-1,2-benzisothiazole-7-sulfonamide-1,1-dioxide], in data set [9], the “metabolism by P450SU1 to phytotoxic 10014” value (from here on “metabolism by P450SU1”) is “metabolized”.

`COc1cc(OC)nc(NC(=O)NS(=O)(=O)c2cccc3c2S(=O)(=O)N(Cc2ccccc2)C3)n1` [compound 10025, N-[(4,6-dimethoxypyrimidin-2-yl)aminocarbonyl]2,3-dihydro-2-(phenylmethyl)-1,2-benzisothiazole-7-sulfonamide-1,1-dioxide]: in data set [9], the “metabolism by P450SU1” value is recorded as “metabolized”.

As to `COc1cc(OC)nc(NC(=O)NS(=O)(=O)c2cccc3c2S(=O)(=O)N(CCF)C3)n1` [compound 10026, N-[(4,6-dimethoxypyrimidin-2-yl)aminocarbonyl]-2-(2-fluoroethy1)-2,3-dihydro-1,2-benzisothiazole-7-sul fonamide-1,1-dioxide], the “metabolism by P450SU1” value in data set [9] is recorded as “metabolized”.

Turning to `CCCN1Cc2cccc(S(=O)(=O)NC(=O)Nc3nc(OC)cc(OC)n3)c2S1(=O)=O` [compound 10027, N-[(4,6-dimethoxypyrimidin-2-yl)aminocarbonyl]-2,3-dihydro-2-propyl-1,2-benzisothiazole-7-sulfonamide-1,1-dioxide], in [9], the “metabolism by P450SU1” value is listed as “metabolized”.

In the case of `Cc1cc(C)n2nc(S(=O)(=O)Nc3c(C)cccc3Cl)nc2n1` [compound 10033, N-(2-chloro-6-methylphenyl)-5,7-dimethyl-1,2,4-triazolo-1,5A-pyrimidine-2-sulfonamide], in [10], the “Percent Conversion” value worked out at 88% and the “metabolism by bacteria containing constitutively expressed P450SU1” value was “metabolized”.

For `Cc1cc(C)nc(S(=O)(=O)Nc2c(Cl)cccc2Cl)n1` [compound 10036, N-(2,6-dichlorophenyl)-4,6-dimethyl-2-pyrimidinesulfonamide], in data set [10], the “Percent Conversion” value is given as 100% and the “metabolism by bacteria containing constitutively expressed P450SU1” value is on record as “metabolized”.
